In patent US10072023B2, “Diarylethene compounds and uses thereof” (SWITCH MATERIALS, INC., priority 2011, dated 2018):

Assays:
[1] = Absorbance at photostationary state (PSS) under simulated sunlight or 365 nm light; assay type: physicochemical; design: λ max: unit not given here; conditions: for Absorbance at PSS, 365 nm: 365 nm light source; for Absorbance at PSS, 365 nm / Absorbance at PSS, full / Absorbance at PSS, +UV / λ max: 2.0×10^−5 M in triglyme; for sensitivity index: ratio of PSS under 365 nm light to PSS under full spectrum light (without UV blocking film); for Absorbance at PSS, full: simulated sunlight (QSUN solar simulator), no UV blocking film; for Absorbance at PSS, +UV: simulated sunlight with UV blocking film (cutoff 370 nm); for λ max: wavelength of maximum absorbance in the visible range, ring-closed isoform
Summary of the method: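 Compounds at 2.0×10^−5 M in triglyme, photofaded with visible light, then irradiated with simulated sunlight (xenon arc) or 365 nm light until the UV/Vis spectrum stabilized. Also irradiated through a UV-blocking film (370 nm cutoff); sensitivity index is PSS under 365 nm divided by PSS under full spectrum.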

[2] = Solubility in indicated solvent; assay type: physicochemical; conditions: % wt soluble in triglyme
From the text: A compound with greater solubility allows for a formulation or material with a greater concentration of coloured molecule to be incorporated into a composition. This may allow for increasing the contrast ratio for a compound with a lesser absorbance at PSS. Inclusion of a solubilizing group in a compound according to various embodiments of the invention may increase solubility. Examples of solubilizing groups may include alkoxy or siloxy groups.

CC(C)(C)c1ccc(-c2cc(C3=C(c4cc(-c5ccc(C(C)(C)C)s5)sc4-c4ccc(C(C)(C)C)s4)C(F)(F)C(F)(F)C3(F)F)c(-c3ccc(C(C)(C)C)s3)s2)s1 [S003, 3′,3″″-(perfluorocyclopent-1-ene-1,2-diyl)bis(5,5″-di-tert-butyl-2,2′:5′,2″-terthiophene)]
Absorbance at PSS, 365 nm [1]: 0.372 | sensitivity index [1]: 1.40 | Absorbance at PSS, full [1]: 0.2655 | Absorbance at PSS, +UV [1]: 0.2055 | λ max [1]: 650 | Solubility [2]: <3 % wt

FC1(F)C(c2cc(-c3ccccc3)sc2-c2ccccc2)=C(c2cc(-c3ccc(Cl)cc3)sc2-c2ccccc2)C(F)(F)C1(F)F [S006, 5-(4-chlorophenyl)-3-(2-(2,5-diphenylthiophen-3-yl)-3,3,4,4,5,5-hexafluorocyclopent-1-en-1-yl)-2-phenylthiophene]
Absorbance at PSS, 365 nm [1]: 0.141 | sensitivity index [1]: 3.71 | Absorbance at PSS, full [1]: 0.038 | Absorbance at PSS, +UV [1]: 0.013 | λ max [1]: 610 | Solubility [2]: 3 % wt

Cc1cc(-c2cc(C3=C(c4cc(-c5cc(C)c(C)s5)sc4-c4cc(C)c(C)s4)C(F)(F)C(F)(F)C3(F)F)c(-c3cc(C)c(C)s3)s2)sc1C [S011]
Absorbance at PSS, 365 nm [1]: 0.363 | sensitivity index [1]: 1.81 | Absorbance at PSS, full [1]: 0.201 | Absorbance at PSS, +UV [1]: 0.142 | λ max [1]: 655 | Solubility [2]: 3 % wt

Cc1c(-c2ccccc2)sc(-c2ccccc2)c1C1=C(c2c(-c3ccccc3)sc(-c3ccccc3)c2C)C(F)(F)C(F)(F)C1(F)F [S017, 4,4′-(perfluorocyclopent-1-ene-1,2-diyl)bis(3-methyl-2,5-diphenylthiophene)]
Absorbance at PSS, 365 nm [1]: 0.049 | sensitivity index [1]: 5.44 | Absorbance at PSS, full [1]: 0.009 | Absorbance at PSS, +UV [1]: 0.0025 | λ max [1]: 605 | Solubility [2]: 1 % wt

COc1ccc(-c2cc(C3=C(c4cc(-c5ccc(OC)s5)sc4-c4ccc(OC)s4)C(F)(F)C(F)(F)C3(F)F)c(-c3ccc(OC)s3)s2)s1 [S020, 3′,3″″-(perfluorocyclopent-1-ene-1,2-diyl)bis(5,5″-dimethoxy-2,2′:5′,2″-terthiophene)]
Absorbance at PSS, 365 nm [1]: 0.244 | sensitivity index [1]: 2.12 | Absorbance at PSS, full [1]: 0.115 | Absorbance at PSS, +UV [1]: 0.085 | λ max [1]: 665 | Solubility [2]: 3 % wt

CC(C)(C)c1ccc(-c2oc3cc4c(cc3c2C2=C(c3c(-c5ccc(C(C)(C)C)cc5)oc5cc6c(cc35)OCO6)C(F)(F)C(F)(F)C2(F)F)OCO4)cc1 [S163, 7,7′-(perfluorocyclopent-1-ene-1,2-diyl)bis(6-(4-(tert-butyl)phenyl)-[1,3]dioxolo[4,5-f]benzofuran)]
Absorbance at PSS, 365 nm [1]: 0.533 | sensitivity index [1]: 2.12 | Absorbance at PSS, full [1]: 0.252 | Absorbance at PSS, +UV [1]: 0.116 | λ max [1]: 588

COc1cc2oc(-c3ccc(C(C)(C)C)cc3)c(C3=C(c4c(-c5ccc(C(C)(C)C)cc5)oc5cc(OC)c(OC)cc45)C(F)(F)C(F)(F)C3(F)F)c2cc1OC [S164, 3,3′-(perfluorocyclopent-1-ene-1,2-diyl)bis(2-(4-(tert-butyl)phenyl)-5,6-dimethoxybenzofuran)]
Absorbance at PSS, 365 nm [1]: 0.546 | sensitivity index [1]: 2.32 | Absorbance at PSS, full [1]: 0.235 | Absorbance at PSS, +UV [1]: 0.134 | λ max [1]: 554

CC(C)(C)c1ccc(-c2cc(C3=C(c4cc(-c5ccc(C(C)(C)C)s5)sc4-c4cccs4)C(F)(F)C(F)(F)C3(F)F)c(-c3cccs3)s2)s1 [S170, 4,4′-(perfluorocyclopent-1-ene-1,2-diyl)bis(5′-tert-butyl-5-(thiopheyl)-2,2′-bithiophene)]
Absorbance at PSS, full [1]: 0.287 | Absorbance at PSS, +UV [1]: 0.182 | λ max [1]: 645
